Assay results from ChEMBL document CHEMBL5352488, “Development of novel S-N3-DABO derivatives as potent non-nucleoside reverse transcriptase inhibitors with improved potency and selectivity” (Eur J Med Chem, 2023).

What was measured:
[1] = system: Human immunodeficiency virus 1; test: Anti-HIV activity against wild type HIV-1 IIIB infected in human MT4 cells assessed as inhibition of virus-induced cytopathic effect by MTT assay; format: functional, organism-based; details: Human immunodeficiency virus 1, IIIB
[2] = Selectivity index, ratio of CC50 for cytotoxicity against human MT4 cells assessed as reduction in cell viability by MTT assay to EC50 for anti-HIV activity against wild type HIV-1 IIIB infected in human MT4 cells assessed as inhibition of virus-induced cytopathic effect by MTT assay; format: toxicity, cell-based; details: read-out: Ratio CC50/EC50
[3] = Cytotoxicity against human MT4 cells assessed as reduction in cell viability by MTT assay; format: toxicity, cell-based
[4] = system: Human immunodeficiency virus 1; test: Anti-HIV activity against drug resistant HIV-1 harboring F227L/V106A mutant infected in human MT4 cells assessed as inhibition of virus-induced cytopathic effect by MTT assay; format: functional, organism-based; details: Human immunodeficiency virus 1, MT4
[5] = system: Human immunodeficiency virus 1; test: Anti-HIV activity against drug resistant HIV-1 harboring Y188L mutant infected in human MT4 cells assessed as inhibition of virus-induced cytopathic effect by MTT assay; format: functional, organism-based; details: Human immunodeficiency virus 1, MT4
[6] = system: Human immunodeficiency virus 1; test: Anti-HIV activity against drug resistant HIV-1 harboring K103N mutant infected in human MT4 cells assessed as inhibition of virus-induced cytopathic effect by MTT assay; format: functional, organism-based; details: Human immunodeficiency virus 1, MT4
[7] = system: Human immunodeficiency virus 1; test: Anti-HIV activity against drug resistant HIV-1 harboring E138K mutant infected in human MT4 cells assessed as inhibition of virus-induced cytopathic effect by MTT assay; format: functional, organism-based; details: Human immunodeficiency virus 1, MT4
[8] = system: Human immunodeficiency virus 1; test: Anti-HIV activity against drug resistant HIV-1 harboring Y181C mutant infected in human MT4 cells assessed as inhibition of virus-induced cytopathic effect by MTT assay; format: functional, organism-based; details: Human immunodeficiency virus 1, MT4
[9] = system: Human immunodeficiency virus 1; test: Anti-HIV activity against drug resistant HIV-1 harboring L100I mutant infected in human MT4 cells assessed as inhibition of virus-induced cytopathic effect by MTT assay; format: functional, organism-based; details: Human immunodeficiency virus 1, MT4

Row | SMILES | EC50 [1] [µM] | selectivity ratio [2] | CC50 [3] [µM] | EC50 [4] [µM] | EC50 [5] [µM] | EC50 [6] [µM] | EC50 [7] [µM] | EC50 [8] [µM] | EC50 [9] [µM]
1 | Cc1c(C(N=[N+]=[N-])c2ccc(Br)cc2)nc(SC(C)C)[nH]c1=O (stereo unspecified) | 0.23 | > 1410 | > 317 |  |  |  |  |  | 
2 | CC(C)Sc1nc(C(N=[N+]=[N-])c2ccc(-c3ccccc3)cc2)c(C(C)C)c(=O)[nH]1 (stereo unspecified) | > 59.2 | < 1 | 84.2 |  |  |  |  |  | 
3 | CCc1c(C(N=[N+]=[N-])c2ccc(-c3ccccc3)cc2)nc(SC(C)C)[nH]c1=O (stereo unspecified) | > 308 |  | > 308 | 16 | 65.4 | 20.9 | 0.37 | 4.41 | 2.06
4 | Cc1ccc(C(N=[N+]=[N-])c2nc(SC(C)C)[nH]c(=O)c2C(C)C)cc1 (stereo unspecified) | 0.52 | > 667 | > 350 |  |  |  |  |  | 
5 | O=C1Nc2ccc(Cl)cc2[C@@](C#CC2CC2)(C(F)(F)F)O1 [EFAVIRENZ] |  |  |  | 0.28 |  |  |  |  | 
6 | Cc1c(C(C#N)c2ccccc2)nc(SC(C)C)[nH]c1=O (stereo unspecified) | 0.37 |  |  | 21.4 | > 204 |  | 0.87 |  | 
7 | CC(C)Sc1nc(C(N=[N+]=[N-])c2ccc(F)cc2)c(C(C)C)c(=O)[nH]1 (stereo unspecified) | 1.16 | > 298 | > 346 |  |  |  |  |  | 
8 | CC(C)Sc1nc(C(N=[N+]=[N-])c2ccc(Cl)cc2)c(C(C)C)c(=O)[nH]1 (stereo unspecified) | 0.9 | > 367 | > 331 |  |  |  |  |  | 
9 | CC(C)Sc1nc(C(N=[N+]=[N-])c2ccc(Br)cc2)c(C(C)C)c(=O)[nH]1 (stereo unspecified) | 1.45 | 23 | 32.8 | > 32.2 | > 32.3 | 8.2 | 3.69 | > 32.2 | 1.44
10 | CCc1c(C(N=[N+]=[N-])c2ccc3ccccc3c2)nc(SC(C)C)[nH]c1=O (stereo unspecified) | 0.52 | < 8 | 3.98 |  |  |  |  |  | 
11 | Cc1c(C(N=[N+]=[N-])c2ccc3ccccc3c2)nc(SC(C)C)[nH]c1=O (stereo unspecified) | 0.44 | 11 | 4.89 | 65 | 69.7 | > 154 | 5.04 | 60.3 | 11.3
12 | CCc1c(C(N=[N+]=[N-])c2cc(OC)cc(OC)c2)nc(SC(C)C)[nH]c1=O (stereo unspecified) | 0.92 | > 349 | > 321 |  |  |  |  |  | 
13 | Cc1c(C(N=[N+]=[N-])c2ccc(-c3ccccc3)cc2)nc(SC(C)C)[nH]c1=O (stereo unspecified) | > 319 |  | > 319 |  |  |  |  |  | 
14 | CCc1c(C(N=[N+]=[N-])c2ccccc2)nc(SC(C)C)[nH]c1=O (stereo unspecified) | 0.14 | > 2770 | > 379 | 14.9 | 188 | 6.03 | 0.55 | 6.02 | 12.2
15 | CCc1c(C(N=[N+]=[N-])c2cccc3ccccc23)nc(SC(C)C)[nH]c1=O (stereo unspecified) | 0.96 | 81 | 77.7 | > 10.2 | 55.8 | 71.6 | 7.34 | 17.1 | 9.18
16 | CCc1c(C(N=[N+]=[N-])c2ccc(OC(F)(F)F)cc2)nc(SC(C)C)[nH]c1=O (stereo unspecified) | 6.02 | > 50 | > 302 | 9.71 | 62.2 | 38.2 | 0.26 | 60.4 | 29.5

Row | SMILES | EC50 [1] [µM] | selectivity ratio [2] | CC50 [3] [µM] | EC50 [4] [µM] | EC50 [5] [µM] | EC50 [6] [µM] | EC50 [7] [µM] | EC50 [8] [µM] | EC50 [9] [µM]
17 | CCc1c(C(N=[N+]=[N-])c2ccc(Br)cc2)nc(SC(C)C)[nH]c1=O (stereo unspecified) | 0.29 | > 1040 | > 306 | 95.7 | 160 | 51.2 | 1.86 | 65.2 | 10.4
18 | Cc1c(C(N=[N+]=[N-])c2ccccc2)nc(SC(C)C)[nH]c1=O (stereo unspecified) | 0.055 | > 7190 | > 396 | > 396 | > 396 | > 387 | 2.66 | > 396 | 10.6
19 | Cc1cc(C)cc(C(N=[N+]=[N-])c2nc(SC(C)C)[nH]c(=O)c2C(C)C)c1 (stereo unspecified) | 0.38 | > 878 | > 336 |  |  |  |  |  | 
20 | Cc1ccc(C(N=[N+]=[N-])c2nc(SC(C)C)[nH]c(=O)c2C)cc1 (stereo unspecified) | 0.083 | 93 | 7.73 |  |  |  |  |  | 
21 | CCc1c(C(N=[N+]=[N-])c2ccc(F)cc2)nc(SC(C)C)[nH]c1=O (stereo unspecified) | 0.38 | > 956 | > 360 |  |  |  |  |  | 
22 | CC(C)Sc1nc(C(N=[N+]=[N-])c2ccc3ccccc3c2)c(C(C)C)c(=O)[nH]1 (stereo unspecified) | > 4.78 | < 1 | 4.79 | 7.39 | > 58.7 | 3.3 | 0.09 | 1.4 | 1.06
23 | COc1cc(OC)cc(C(N=[N+]=[N-])c2nc(SC(C)C)[nH]c(=O)c2C)c1 (stereo unspecified) | 0.34 | > 983 | > 333 | 38.5 | > 333 | 107 | 1.54 | 9.85 | 2.62
24 | CC(C)Sc1nc(C(N=[N+]=[N-])c2ccccc2)c(C(C)C)c(=O)[nH]1 (stereo unspecified) | 0.47 | > 780 | > 364 |  |  |  |  |  | 
25 | Cc1c(C(N=[N+]=[N-])c2ccc(OC(F)(F)F)cc2)nc(SC(C)C)[nH]c1=O (stereo unspecified) | 4.93 | > 63 | > 313 |  |  |  |  |  | 
26 | Cc1ccnc2c1NC(=O)c1cccnc1N2C1CC1 [NEVIRAPINE] |  |  | > 15 | > 15 | > 15 |  |  | 7.71 | 
27 | Cc1c(C(N=[N+]=[N-])c2cccc3ccccc23)nc(SC(C)C)[nH]c1=O (stereo unspecified) | 0.34 | > 1000 | > 342 | > 342 | > 342 | > 342 | 1.37 | 186 | 5.27
28 | Cc1c(C(N=[N+]=[N-])c2ccc(F)cc2)nc(SC(C)C)[nH]c1=O (stereo unspecified) | 0.29 | 1090 | 320 |  |  |  |  |  | 
29 | CCc1c(C(N=[N+]=[N-])c2ccc(Cl)cc2)nc(SC(C)C)[nH]c1=O (stereo unspecified) | 0.26 | > 1310 | > 344 | > 127 | > 344 | 14.3 | 0.81 | 95.2 | 3.69
30 | Cc1c(C(N=[N+]=[N-])c2ccc(Cl)cc2)nc(SC(C)C)[nH]c1=O (stereo unspecified) | 0.22 | > 1650 | > 357 | > 357 | > 357 | 61.1 | 3.61 | > 357 | 11
31 | COc1cc(OC)cc(C(N=[N+]=[N-])c2nc(SC(C)C)[nH]c(=O)c2C(C)C)c1 (stereo unspecified) | 1.78 | 55 | 97.6 | 58.9 | 63.1 | > 139 | 4.56 | 54.7 | 10.2
32 | Cc1cn([C@H]2C[C@H](N=[N+]=[N-])[C@@H](CO)O2)c(=O)[nH]c1=O [ZIDOVUDINE] |  | > 236 | > 7.06 | 0.026 |  | 0.024 |  | 0.023 | 0.012
